Measurements reported in ChEMBL document CHEMBL1152231, “Discovery of small molecule agonists for the bombesin receptor subtype 3 (BRS-3) based on an omeprazole lead” (Bioorg Med Chem Lett, 2008).
Square brackets hold non-standard residues; d marks the D form. Peptide text beside a SMILES is read from it. Nle = CCCC[C@H](N)C(=O)O; βAla = NCCC(=O)O

Columns and labels:
[1] = molecular target: T1, Bombesin receptor subtype-3 (Homo sapiens, UniProt P32247); assay: Agonist activity at recombinant BRS-3 receptor expressed in baculovirus-transduced HEK293 cells assessed as intracellular calcium mobilization by FLIPR assay; type: functional
T1 sequence (P32247 whole entry): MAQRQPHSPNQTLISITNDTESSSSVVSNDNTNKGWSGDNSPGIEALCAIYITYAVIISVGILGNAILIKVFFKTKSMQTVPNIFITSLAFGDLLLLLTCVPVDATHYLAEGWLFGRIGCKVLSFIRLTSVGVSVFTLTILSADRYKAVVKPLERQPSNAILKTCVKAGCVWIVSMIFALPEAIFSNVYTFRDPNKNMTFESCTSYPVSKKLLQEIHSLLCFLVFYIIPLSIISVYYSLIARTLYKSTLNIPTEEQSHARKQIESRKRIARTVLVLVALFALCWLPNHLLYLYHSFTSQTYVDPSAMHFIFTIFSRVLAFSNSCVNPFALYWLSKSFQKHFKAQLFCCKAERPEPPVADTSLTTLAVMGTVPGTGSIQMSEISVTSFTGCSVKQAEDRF

[2] = molecular target: T2, Bombesin receptor subtype-3 (Homo sapiens) (UniProt P32247); assay: Agonist activity at recombinant BRS-3 receptor expressed in baculovirus-transduced HEK293 cells assessed as maximum response of intracellular calcium mobilization by FLIPR assay relative to D-Phe-Gln-Trp-Ala-Val-beta-Ala-His-Phe-Nle-NH2; type: functional
T2 sequence (whole entry): T1 sequence (P32247 whole entry)

[3] = molecular target: T3, Gastrin-releasing peptide receptor (Homo sapiens, UniProt P30550); assay: Binding affinity to gastrin releasing peptide receptor
T3 sequence (P30550 whole entry): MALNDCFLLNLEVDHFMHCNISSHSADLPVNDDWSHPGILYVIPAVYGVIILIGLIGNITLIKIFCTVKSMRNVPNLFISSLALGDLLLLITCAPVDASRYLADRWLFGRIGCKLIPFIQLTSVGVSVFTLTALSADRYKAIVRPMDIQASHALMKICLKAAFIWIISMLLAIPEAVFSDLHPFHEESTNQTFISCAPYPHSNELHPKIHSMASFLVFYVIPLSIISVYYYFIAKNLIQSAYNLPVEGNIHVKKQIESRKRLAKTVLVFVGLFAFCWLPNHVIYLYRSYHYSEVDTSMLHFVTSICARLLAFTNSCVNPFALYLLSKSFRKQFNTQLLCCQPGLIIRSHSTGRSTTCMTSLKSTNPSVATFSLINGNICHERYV

Neuromedin-B receptor [4] = molecular target: T4, Neuromedin-B receptor (Homo sapiens, UniProt P28336); assay: Binding affinity to neuromedin B receptor
T4 sequence (P28336 whole entry): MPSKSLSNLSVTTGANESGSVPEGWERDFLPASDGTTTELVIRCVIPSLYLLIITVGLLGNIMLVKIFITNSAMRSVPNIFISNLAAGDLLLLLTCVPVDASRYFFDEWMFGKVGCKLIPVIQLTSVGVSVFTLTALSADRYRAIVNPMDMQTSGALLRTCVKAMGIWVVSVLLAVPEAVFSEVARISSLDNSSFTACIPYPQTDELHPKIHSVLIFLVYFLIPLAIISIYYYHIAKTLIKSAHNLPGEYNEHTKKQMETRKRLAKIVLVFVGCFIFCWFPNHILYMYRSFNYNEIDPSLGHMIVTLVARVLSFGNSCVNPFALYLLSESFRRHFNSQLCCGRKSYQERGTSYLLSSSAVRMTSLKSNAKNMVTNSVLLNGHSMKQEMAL

[5] = molecular target: T3, Gastrin-releasing peptide receptor; assay: Agonist activity at recombinant gastrin releasing peptide receptor expressed in baculovirus-transduced HEK293 cells assessed as intracellular calcium mobilization by FLIPR assay; type: functional
Neuromedin-B receptor [6] = molecular target: T4, Neuromedin-B receptor; assay: Agonist activity at recombinant neuromedin B receptor expressed in baculovirus-transduced HEK293 cells assessed as intracellular calcium mobilization by FLIPR assay; type: functional
[7] = molecular target: T1, Bombesin receptor subtype-3; assay: Binding affinity to BRS-3 receptor
[8] = Clearance in iv dosed rat; type: ADME, organism-based; settings: in vivo
[9] = Volume of distribution at steady state in iv dosed rat; type: ADME, organism-based; settings: in vivo, read-out: Vdss
[10] = Half life in iv dosed rat; type: ADME, organism-based; settings: in vivo

EC50 [1] [µM]	%max [2] [%]	SMILES	other results
> 32	–	COc1ccc2nc(NC(=O)c3cc4c(cc3Cl)OCO4)[nH]c2c1	–
0.38	67	COc1ccc2nc(SCc3cc4c(cc3Cl)OCO4)[nH]c2c1	–
> 32	–	Clc1cc2c(cc1OCc1nc3ccc(Oc4ccccc4)cc3[nH]1)OCO2	–
> 32	–	COc1ccc2oc(CCc3cc4c(cc3Cl)OCO4)nc2c1	–
3.9	64	COc1ccc2[nH]c(SCc3ncc(C)c(OC)c3C)nc2c1 [UFIPRAZOLE]	–
> 32	–	COc1ccc2nc(SCc3n[nH]c4ccccc34)[nH]c2c1	–
0.0039	–	CCCC[C@H](NC(=O)[C@H](Cc1ccccc1)NC(=O)[C@H](Cc1c[nH]cn1)NC(=O)CCNC(=O)[C@@H](NC(=O)[C@H](C)NC(=O)[C@H](Cc1c[nH]c2ccccc12)NC(=O)[C@H](CCC(N)=O)NC(=O)[C@H](N)Cc1ccccc1)C(C)C)C(N)=O (H-[dF]QWAV[βAla]HF[Nle]-NH2)	Ki [3]: 0.99 nM; Ki (Neuromedin-B receptor [4]): 8.9 nM; EC50 [5]: 0.06 nM; EC50 (Neuromedin-B receptor [6]): 0.55 nM; Ki [7]: 0.36 nM
1.6	68	COc1cc(CSc2nc3ccc(OC)cc3[nH]2)cc(OC)c1	–
> 32	–	COc1ccc2nc(SCc3ccc(F)c(F)c3)[nH]c2c1	–
> 32	–	COc1ccc2nc(SCc3ccc4ccccc4c3)[nH]c2c1	–
> 32	–	COc1ccc2nc(CCc3cc4c(cc3Cl)OCO4)sc2c1	–
> 32	–	COc1ccc2nc(CCc3cc4c(cc3Cl)OCO4)oc2c1	–
> 32	–	COc1ccc2nc(SCc3ccncc3)[nH]c2c1	–
> 32	–	COc1ccc2sc(CCc3cc4c(cc3Cl)OCO4)nc2c1	–
> 32	–	COc1ccc2nc(NCc3cc4c(cc3Cl)OCO4)[nH]c2c1	–
> 32	–	COc1ccc2nc(/C=C/c3cc4c(cc3Cl)OCO4)[nH]c2c1	–
0.24	69	FC(F)(F)c1ccc2nc(COc3cc4c(cc3Cl)OCO4)[nH]c2c1	–
0.21	82	COc1ccc2nc(CCc3cc4c(cc3Cl)OCO4)[nH]c2c1	–
14	27	COc1ccc2[nH]c([S+]([O-])Cc3ncc(C)c(OC)c3C)nc2c1 (stereo not given) [OMEPRAZOLE]	–
0.35	83	COc1ccc2nc(C(C)Cc3cc4c(cc3Cl)OCO4)[nH]c2c1 (stereo not given)	–
0.51	71	COc1ccc2nc(COc3cc4c(cc3Cl)OCO4)[nH]c2c1	clearance [8]: 61 mL/min/kg; Vd [9]: 1.2 L/kg; half-life [10]: 30 min
> 32	–	Cc1cc2nc(COc3cc4c(cc3Cl)OCO4)[nH]c2cc1Cl	–
0.57	59	Clc1ccc2nc(COc3cc4c(cc3Cl)OCO4)[nH]c2c1	–
